In patent US11419870B2, “Intermittent dosing of MDM2 inhibitor” (Novartis AG, priority 2014, dated 2022):

Experiments:
Cdkn1 a (p21) = test: Pharmacodynamic qRT-PCR: p21 mRNA induction in SJSA-1 tumor; format: in vivo, nude rat
Description: (§1) At the times indicated, animals were anaesthetized by exposure to 2-3% v/v isofluorane in medical oxygen: • Either the animal was killed without recovering from anesthetic after blood sampling. Blood was collected into commercially prepared EDTA coated tubes (Milian, cat #TOM-14C) in order to extract plasma. The tissues were excised, weighed and rapidly frozen in liquid nitrogen. • Or a tumor biopsy was collected by using a biopsy gun and flushing the needle with RLT buffer in Barney rubble tubes (Covaris, cat #520048). In addition, 20 μl of blood may have been collected from the tail vein and diluted in 20 μl of water. After recovery of anesthesia, animals were transferred in their respective cages.
(§2) Frozen tissues were cryogenic dry pulverized and biopsies were sonicated using the CryoPrep™ system (model CP-02) from Covaris. More specifically, frozen tissues were transferred to disposable tubes called TissueTubes™, placed in the CryoPrep™ system and then pulverized using the appropriate impact setting. The resulting powder was collected with a spatula and weighed for further processing (mRNA purification or quantification of compound in tissues). The biopsies were flushed in a Barney rubble glass tubes with 350 μl of RLT buffer and placed in the Covaris for sonication (1 min per biopsy). The resulting lysate was transferred into a QIAshredder (79654, Qiagen) column for RNA extraction.
(§3) Total RNA was purified from cell pellets using the QIAshredder (79654, Qiagen) and RNeasy Mini Kit (74106, Qiagen) according to the manufacturer's instructions, with the exception that no DNA digestion was performed. Total RNA was eluted with 50 μL of RNase-free water. Total RNA was quantitated using the spectrophotometer ND-1000 Nanodrop®. The qRT-PCR (Quantitative Reverse Transcriptase Polymerase Chain Reaction) was set up in triplicate per sample using the One-Step RT qPCR Master Mix Plus (RT-QPRT-032X, Eurogentec), with either control primers and primers for the target, namely TaqMan Gene Expression assays (20× probe dye FAM™ (or VIC)-TAMRA (or MGB); Applied Biosystems) listed in Table 1.

Rat Bbc3 (PUMA) = test: mRNA in situ hybridization of host tissues; format: in vivo; settings: i.v. 20 mg/kg
Experimental: In situ hybridization was performed using the QuantiGene ViewRNA FFPE Assay kit (Affymetrix/Panomics) following the manufacturer's protocol. Gene-specific probe sets for rat Ubc (Ubiquitin C) and Bbc3 (PUMA) mRNAs were custom-designed and synthesized by Affymetrix. Bbc3 probes were used in type 1/Fast Red and Ubc probes were used in type 6/Fast Blue. Slides were processed strictly following the QuantiGene protocol. […] Briefly, five micrometer sections were cut, fixed in 10% formaldehyde, deparaffinized and rehydrated. In order to increase accessibility to mRNAs, slides were then boiled in pre-treatment solution (Affymetrix) and digested with protease QF (Affymetrix) at optimal conditions. Sections were then hybridized for 3 h at 40° C. with custom-designed QuantiGene ViewRNA probes against Bbc3 and the control gene Ubc. A no-probe sample was utilized as a negative control per the Affymetrix manual's recommendations. […] LP-AP type 6 probe detection of signal was done with Fast Blue substrate (blue dots, Cy5 fluorescence) for 30 mn at RT in the dark, followed by LP-AP type 1 probe detection of signal with Fast Red Substrate (red dots, Cy3 fluorescence) for 30 mn at 40° C. […]

BBC3 (puma) = test: Pharmacodynamic qRT-PCR: Puma mRNA induction in SJSA-1 tumor; format: in vivo, Human
Description: as §1, §2, §3

[1] = after first p.o. treatment, 20 and 27 mg/kg
[2] = after first single i.v. treatment 20 mg/kg
[3] = single i.v. 20 mg/kg, 24 h post treatment, tumor
[4] = single oral 27 mg/kg, 48 h post treatment, tumor

**Q.** How did the “p21 mRNA expression in tumor” value (Cdkn1 a (p21); [1]) turn out when `COc1ncc(-c2nc3c(n2C(C)C)[C@H](c2ccc(Cl)cc2)N(c2cc(Cl)cn(C)c2=O)C3=O)c(OC)n1` [Compound A, (S)-5-(5-Chloro-1-methyl-2-oxo-1,2-dihydro-pyridin-3-yl)-6-(4-chloro-phenyl)-2-(2,4-dimethoxy-pyrimidin-5-yl)-1-isopropyl-5,6-dihydro-1H-pyrrolo[3,4-d]imidazol-4-one] was run?
**A.** dose-dependently increased

**Q.** And the “p21 mRNA expression increase in tumor” value (Cdkn1 a (p21); [2])?
**A.** more than 50 fold

**Q.** And the “p21 mRNA expression max” value (Cdkn1 a (p21); [3])?
**A.** 200 fold

**Q.** What about the “p21 mRNA induction Emax” value (Cdkn1 a (p21); [4]) of the same compound?
**A.** 180 fold

**Q.** What about the “time of maximum increase in Puma (Bbc3) mRNA” value (Rat Bbc3 (PUMA); jejunum section, post last treatment) of the same compound?
**A.** 3 h

**Q.** What about the “time of return of Puma mRNA to baseline” value (Rat Bbc3 (PUMA); post treatment) of the same compound?
**A.** 7 days

**Q.** And the “Puma mRNA expression in tumor” value (BBC3 (puma); [1])?
**A.** dose-dependently increased

**Q.** What about the “Puma mRNA expression increase in tumor” value (BBC3 (puma); [2]) of the same compound?
**A.** more than 50 fold

**Q.** And the “Puma mRNA expression induction” value (BBC3 (puma); below the high dose)?
**A.** 5-6 fold

**Q.** And the “Puma mRNA induction Emax” value (BBC3 (puma); higher single dose, intravenously or per os)?
**A.** ≥ 70 fold induction

**Q.** What about the “Puma mRNA expression max” value (BBC3 (puma); [3]) of the same compound?
**A.** 180 fold

**Q.** And the “Puma mRNA induction Emax” value (BBC3 (puma); [4])?
**A.** 162 fold
